From patent US5840684A, “Glycopeptide antibiotic derivatives” (Eli Lilly and Company, priority 1995, dated 1998)
Values after ≈ are worked out from the molar mass of the structure shown.

Key:
[1] = system: vancomycin-resistant enterococci; assay: broth micro-dilution, mean geometric MIC; format: cell-based, Enterococcus faecium and Enterococcus faecalis; settings: enterococci, 24-hour incubation
[2] = system: Staphylococcus aureus X778; assay: broth micro-dilution MIC; format: cell-based
Description: (§1) The MIC's were determined using a standard broth micro-dilution assay.

[3] = system: Entercoccus faecium 180-1; assay: broth micro-dilution MIC; format: cell-based
Description: as §1

[4] = system: Streptococcus pyogenes C203; assay: broth micro-dilution MIC; format: cell-based
Description: as §1

[5] = system: Staphylococcus aureus 447; assay: broth micro-dilution MIC; format: cell-based
Description: as §1

[6] = system: Staphylococcus aureus X400; assay: broth micro-dilution MIC; format: cell-based
Description: as §1

[7] = system: Staphylococcus aureus 446; assay: broth micro-dilution MIC; format: cell-based
Description: as §1

[8] = system: Staphylococcus aureus 489; assay: broth micro-dilution MIC; format: cell-based
Description: as §1

[9] = system: Staphylococcus aureus SA1199A; assay: broth micro-dilution MIC; format: cell-based
Description: as §1

[10] = system: Staphylococcus aureus SA1199; assay: broth micro-dilution MIC; format: cell-based
Description: as §1

Entercoccus faecium 276 = assay: broth micro-dilution MIC; format: cell-based
Description: as §1

[11] = system: Staphylococcus aureus 491; assay: broth micro-dilution MIC; format: cell-based
Description: as §1

[12] = system: vancomycin-susceptible enterococci; assay: broth micro-dilution, mean geometric MIC; format: cell-based, Enterococcus faecium and Enterococcus faecalis; settings: enterococci, 24-hour incubation
[13] = system: Streptococcus pneumoniae P1; assay: broth micro-dilution MIC; format: cell-based
Description: (§2) The formula I compounds have in vitro and in vivo activity against Gram-positive pathogenic bacteria. The MIC's were determined using a standard broth micro-dilution assay.

[14] = system: Staphylococcus epidermidis 270; assay: broth micro-dilution MIC; format: cell-based
Description: as §2

[15] = system: Haemophilus influenzae RD; assay: broth micro-dilution MIC; format: cell-based; settings: Haemophilus influenzae RD
Description: as §2

[16] = system: Enterococcus gallinarum 245; assay: broth micro-dilution MIC; format: cell-based; settings: Enterococcus gallinarum 245
Description: as §2

Entercoccus faecium 2041 = assay: broth micro-dilution MIC; format: cell-based; settings: Entercoccus faecium 2041
Description: as §2

Entercoccus faecium 180 = assay: broth micro-dilution MIC; format: cell-based; settings: Entercoccus faecium 180
Description: as §2

[17] = system: Staphylococcus haemolyticus 415; assay: broth micro-dilution MIC; format: cell-based
Description: as §2

[18] = system: Staphylococcus haemolyticus 105; assay: broth micro-dilution MIC; format: cell-based
Description: as §2

[19] = system: Staphylococcus aureus SA1199B; format: cell-based
Description: as §1

[20] = system: Staphylococcus aureus S13E; format: cell-based
Description: as §1

SMILES	mean geometric MIC, Vancomycin Resistant Strains [1]	MIC [2]	MIC [4]	MIC [5]	MIC [6]	MIC [7]	MIC [8]	MIC [9]	MIC [10]	MIC (Entercoccus faecium 276)	MIC [11]	mean geometric MIC, Vancomycin Sensitive Strains [12]	MIC [13]	MIC [14]	MIC [15]	MIC [16]	MIC (Entercoccus faecium 2041)	MIC (Entercoccus faecium 180)	MIC [17]	MIC [18]	further results
CNC(CC(C)C)C(=O)NC1C(=O)NC(CC(N)=O)C(=O)NC2C(=O)NC3C(=O)NC(C(=O)NC(C(=O)O)c4cc(O)cc(O)c4-c4cc3ccc4O)C(OC3CC(C)(N)C(O)C(C)O3)c3ccc(c(Cl)c3)Oc3cc2cc(c3OC2OC(CO)C(O)C(O)C2OC2CC(C)(NCc3c4ccccc4c(C)c4ccccc34)C(O)C(C)O2)Oc2ccc(cc2Cl)C1O (centres unmarked) [Compound 17]	9.5 µg/mL	0.5 µg/mL (≈ 0.278 µM)	≤ 0.06 µg/mL	8 µg/mL (≈ 4.45 µM)	0.5 µg/mL (≈ 0.278 µM)	2 µg/mL (≈ 1.11 µM)	1 µg/mL (≈ 0.557 µM)	≤ 0.06 µg/mL	4 µg/mL (≈ 2.23 µM)	0.5 µg/mL (≈ 0.278 µM)	2 µg/mL (≈ 1.11 µM)	0.38 µg/mL	≤ 0.06 µg/mL	4 µg/mL (≈ 2.23 µM)	32 µg/mL (≈ 17.8 µM)	0.5 µg/mL (≈ 0.278 µM)	0.25 µg/mL (≈ 0.139 µM)	2 µg/mL (≈ 1.11 µM)	8 µg/mL (≈ 4.45 µM)	8 µg/mL (≈ 4.45 µM)	MIC [3]: ≤ 0.06 µg/mL; MIC [19]: 1 µg/mL (≈ 0.557 µM); MIC [20]: 1 µg/mL (≈ 0.557 µM)
CNC(CC(C)C)C(=O)NC1C(=O)NC(CC(N)=O)C(=O)NC2C(=O)NC3C(=O)NC(C(=O)NC(C(=O)O)c4cc(O)cc(O)c4-c4cc3ccc4O)C(OC3CC(C)(N)C(O)C(C)O3)c3ccc(c(Cl)c3)Oc3cc2cc(c3OC2OC(CO)C(O)C(O)C2OC2CC(C)(NCc3ccc(Oc4ccc(Cl)c(Cl)c4)cc3)C(O)C(C)O2)Oc2ccc(cc2Cl)C1O (centres unmarked) [Compound 81]	1.0 µg/mL	1 µg/mL (≈ 0.542 µM)	≤ 0.06 µg/mL	2 µg/mL (≈ 1.08 µM)	1 µg/mL (≈ 0.542 µM)	2 µg/mL (≈ 1.08 µM)	2 µg/mL (≈ 1.08 µM)	0.5 µg/mL (≈ 0.271 µM)	2 µg/mL (≈ 1.08 µM)	≤ 0.06 µg/mL	1 µg/mL (≈ 0.542 µM)	0.042 µg/mL	≤ 0.06 µg/mL	1 µg/mL (≈ 0.542 µM)	16 µg/mL (≈ 8.68 µM)	0.25 µg/mL (≈ 0.136 µM)	≤ 0.06 µg/mL	≤ 0.06 µg/mL	4 µg/mL (≈ 2.17 µM)	1 µg/mL (≈ 0.542 µM)	MIC [19]: 1 µg/mL (≈ 0.542 µM); MIC [20]: 0.5 µg/mL (≈ 0.271 µM)
CNC(CC(C)C)C(=O)NC1C(=O)NC(CC(N)=O)C(=O)NC2C(=O)NC3C(=O)NC(C(=O)NC(C(=O)O)c4cc(O)cc(O)c4-c4cc3ccc4O)C(OC3CC(C)(N)C(O)C(C)O3)c3ccc(c(Cl)c3)Oc3cc2cc(c3OC2OC(CO)C(O)C(O)C2OC2CC(C)(NCc3c4c(cc5ccccc35)CCCC4)C(O)C(C)O2)Oc2ccc(cc2Cl)C1O (centres unmarked) [Compound 156]	5.7 µg/mL	1 µg/mL (≈ 0.56 µM)	≤ 0.06 µg/mL	1 µg/mL (≈ 0.56 µM)	2 µg/mL (≈ 1.12 µM)	2 µg/mL (≈ 1.12 µM)	1 µg/mL (≈ 0.56 µM)	≤ 0.06 µg/mL	1 µg/mL (≈ 0.56 µM)	2 µg/mL (≈ 1.12 µM)	1 µg/mL (≈ 0.56 µM)	0.17 µg/mL	≤ 0.06 µg/mL	1 µg/mL (≈ 0.56 µM)	2 µg/mL (≈ 1.12 µM)	2 µg/mL (≈ 1.12 µM)	0.5 µg/mL (≈ 0.28 µM)	1 µg/mL (≈ 0.56 µM)	2 µg/mL (≈ 1.12 µM)	4 µg/mL (≈ 2.24 µM)	MIC [3]: ≤ 0.06 µg/mL; MIC [19]: 0.5 µg/mL (≈ 0.28 µM); MIC [20]: 1 µg/mL (≈ 0.56 µM)
CNC(CC(C)C)C(=O)NC1C(=O)NC(CC(N)=O)C(=O)NC2C(=O)NC3C(=O)NC(C(=O)NC(C(=O)O)c4cc(O)cc(O)c4-c4cc3ccc4O)C(OC3CC(C)(N)C(O)C(C)O3)c3ccc(c(Cl)c3)Oc3cc2cc(c3OC2OC(CO)C(O)C(O)C2OC2CC(C)(NCCCCc3ccc(OC)cc3)C(O)C(C)O2)Oc2ccc(cc2Cl)C1O (centres unmarked) [Compound 172]	3.4 µg/mL	2 µg/mL (≈ 1.14 µM)	≤ 0.06 µg/mL	0.5 µg/mL (≈ 0.285 µM)	0.5 µg/mL (≈ 0.285 µM)	4 µg/mL (≈ 2.28 µM)	0.5 µg/mL (≈ 0.285 µM)	≤ 0.06 µg/mL	1 µg/mL (≈ 0.57 µM)	0.125 µg/mL (≈ 0.0712 µM)	0.5 µg/mL (≈ 0.285 µM)	0.13 µg/mL	≤ 0.06 µg/mL	0.5 µg/mL (≈ 0.285 µM)	32 µg/mL (≈ 18.2 µM)	2 µg/mL (≈ 1.14 µM)	≤ 0.06 µg/mL	0.5 µg/mL (≈ 0.285 µM)	2 µg/mL (≈ 1.14 µM)	0.25 µg/mL (≈ 0.142 µM)	MIC [3]: ≤ 0.06 µg/mL; MIC [19]: ≤ 0.06 µg/mL; MIC [20]: ≤ 0.06 µg/mL
CNC(CC(C)C)C(=O)NC1C(=O)NC(CC(N)=O)C(=O)NC2C(=O)NC3C(=O)NC(C(=O)NC(C(=O)O)c4cc(O)cc(O)c4-c4cc3ccc4O)C(OC3CC(C)(N)C(O)C(C)O3)c3ccc(c(Cl)c3)Oc3cc2cc(c3OC2OC(CO)C(O)C(O)C2OC2CC(C)(NCc3ccc(-c4ccccc4)cc3)C(O)C(C)O2)Oc2ccc(cc2)C1O (centres unmarked) [Compound 185]	4.7 µg/mL	≤ .06 µg/mL	≤ .06 µg/mL	≤ .06 µg/mL	≤ .06 µg/mL	≤ .06 µg/mL	≤ .06 µg/mL	≤ .06 µg/mL	≤ .06 µg/mL	≤ .06 µg/mL	≤ .06 µg/mL	0.060 µg/mL	≤ .06 µg/mL	≤ .06 µg/mL	8 µg/mL (≈ 4.64 µM)	≤ .06 µg/mL	≤ .06 µg/mL	0.125 µg/mL (≈ 0.0725 µM)	≤ .06 µg/mL	≤ .06 µg/mL	MIC [3]: ≤ .06 µg/mL; MIC [19]: ≤ .06 µg/mL; MIC [20]: ≤ .06 µg/mL
CNC(CC(C)C)C(=O)NC1C(=O)NC(CC(N)=O)C(=O)NC2C(=O)NC3C(=O)NC(C(=O)NC(C(=O)O)c4cc(O)cc(O)c4-c4cc3ccc4O)C(OC3CC(C)(N)C(O)C(C)O3)c3ccc(c(Cl)c3)Oc3cc2cc(c3OC2OC(CO)C(O)C(O)C2OC2CC(C)(NCCCCCCCCOc3ccccc3)C(O)C(C)O2)Oc2ccc(cc2Cl)C1O (centres unmarked) [Compound 195]	2.0 µg/mL	0.5 µg/mL (≈ 0.278 µM)	≤ 0.06 µg/mL	1 µg/mL (≈ 0.557 µM)	2 µg/mL (≈ 1.11 µM)	0.5 µg/mL (≈ 0.278 µM)	1 µg/mL (≈ 0.557 µM)	≤ 0.06 µg/mL	0.5 µg/mL (≈ 0.278 µM)	0.25 µg/mL (≈ 0.139 µM)	0.5 µg/mL (≈ 0.278 µM)	0.042 µg/mL	≤ 0.06 µg/mL	0.25 µg/mL (≈ 0.139 µM)	32 µg/mL (≈ 17.8 µM)	4 µg/mL (≈ 2.23 µM)	≤ 0.06 µg/mL	0.5 µg/mL (≈ 0.278 µM)	4 µg/mL (≈ 2.23 µM)	1 µg/mL (≈ 0.557 µM)	MIC [3]: ≤ 0.06 µg/mL; MIC [19]: 1 µg/mL (≈ 0.557 µM); MIC [20]: 2 µg/mL (≈ 1.11 µM)
